The values that follow are results of earlier work, collected in patent publication US11248001B2, “PCSK9 inhibitors and methods of use thereof” (ASTRAZENECA AB, priority 2019, dated 2022).

The conditions of this series: clinical trials, patients.

As for alirocumab, the “decrease in LDL levels” value is “about 50%”.

B1: evolocumab (antibody, chains of the INN, looked up, V domains shown)
VH: EVQLVQSGAEVKKPGASVKVSCKASGYTLTSYGISWVRQAPGQGLEWMGWVSFYNGNTNYAQKLQGRGTMTTDPSTSTAYMELRSLRSDDTAVYYCARGYGMDVWGQGTTVTVSS
VL: ESALTQPASVSGSPGQSITISCTGTSSDVGGYNSVSWYQQHPGKAPKLMIYEVSNRPSGVSNRFSGSKSGNTASLTISGLQAEDEADYYCNSYTSTSMVFGGGTKLTVL
Consider B1, for which the “decrease in LDL levels” value is given as 60-75%.
